Consider six compounds from patent US20150050682A1, “DIRECT ASSAY OF THIOREDOXIN REDUCTASE ACTIVITY” (University of Vermont and State Agricultural College, priority 2013, published 2015).

Series [1] deals with thioredoxin reductase (TR). The series is described as follows: Selenocystine TR assay (SC-TR assay). It is filed as biochemical, mouse. The note with it: for Efficiency of reduction by TR: L- versus racemic selenocystine as substrate; for Inhibition of TR activity (NADPH turnover, A340): C10 whole cell lysates, FIG. 2B. The procedure: Selenocystine TR assay. Cells were plated into 60 mm tissue culture dishes and the following day were washed with ice-cold 1× phosphate buffered saline (PBS) and lysed in the culture dish by adding either TE Buffer (50 mM Tris/HCl pH 7.5, 1 mM EDTA) or NP-40 lysis buffer (150 mM NaCl, 50 mM Tris pH 8.0, 1% NP-40, 1 μg/mL leupeptin, 1 μg/mL aprotinin, 1 mM NaF, 1 mM NaVO3, 1 mM PMSF) as indicated in the text. Cell lysates were scraped from culture dishes on ice and transferred to 1.5 mL microcentrifuge tubes. TE buffer lysates were sonicated at 4° C. for 30 sec with 1-2 sec pulses using a sonic dismembrator. TE and NP-40 lysates were centrifuged for 10 min at 14,000 rpm at 4° C. and protein concentrations of the supernatants were determined by reading the absorption at 595 nm of Bradford reagent. A total reaction volume of 100 μl was assembled in a clear 96-well round bottom microplate containing the following: (i) master mix containing 1 mM NADPH and 2 mM selenocystine (SC) in ddH2O (addition of 40 μl of master mix to 100 μl reaction volume yields final concentrations of 400 μM and 800 μM respectively), (ii) 25 μg or the largest practical amount of protein, (iii) TE or NP-40 lysis buffer. Controls for each sample included protein only control, protein and NADPH control, and protein and SC control. Control master mixes contained: (i) 2 mM NADPH in ddH2O (addition of 20 μl to 100 μl reaction volume yields final concentration of 400 μM), (ii) 2 mM SC prepared as described above (addition of 40 μl to 100 μl reaction volume yields final concentration of 800 μM).
Each master mix was separately placed into a clean, sterile pipet basin and pipetted quickly into the wells of a 96-well microplate with a multichannel pipetter making sure to avoid bubbles. This approach was used in order that each sample was exposed to the master mix at the same time to ensure homogeneity of results. The plate was read in 30 sec intervals over a 20 min time period at 340 nm on a Synergy HT Microplate Reader™ (BioTek). Because the assay monitors the consumption of NADPH at 340 nm, an activity can be calculated by using Beer's Law and an extinction coefficient of 6,220 M^−1 cm^−1 for NADPH. The activity can be reported as mol NADPH consumed per min. Bradford assays for total protein concentration determination can be performed directly in each well of the 96-well plate. If this is done, then the activity can be reported as mol NADPH consumed per min per mg of total protein. For the data presented in FIGS. 2 and 5, 1 unit of TR activity is defined as the amount of TR that will consume 1 nmol of NADPH per min.

For the next series, the target named is T1, glutathione reductase (Homo sapiens, UniProt P00390).
T1 sequence (P00390 44-522): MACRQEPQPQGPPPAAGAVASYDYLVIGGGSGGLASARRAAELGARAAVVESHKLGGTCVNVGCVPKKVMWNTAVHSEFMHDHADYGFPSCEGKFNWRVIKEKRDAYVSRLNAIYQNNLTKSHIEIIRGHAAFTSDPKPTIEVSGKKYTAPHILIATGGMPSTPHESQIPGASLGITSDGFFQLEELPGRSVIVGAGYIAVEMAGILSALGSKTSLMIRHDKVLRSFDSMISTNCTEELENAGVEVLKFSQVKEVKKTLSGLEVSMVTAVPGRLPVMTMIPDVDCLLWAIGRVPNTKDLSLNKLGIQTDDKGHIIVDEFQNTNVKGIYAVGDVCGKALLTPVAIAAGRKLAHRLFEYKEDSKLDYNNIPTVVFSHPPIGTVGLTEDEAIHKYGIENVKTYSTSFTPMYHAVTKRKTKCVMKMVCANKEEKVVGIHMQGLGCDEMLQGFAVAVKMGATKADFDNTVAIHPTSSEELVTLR
The series is described as follows: Reduction of selenocystine by glutathione reductase in vitro. It is filed as biochemical. The conditions noted are these: same experimental conditions under which TR reduces selenocystine.

Series [2] concerns thioredoxin reductase (TR). The series can be described thus: Discontinuous insulin end-point TR assay. The note with it: for Inhibition of TR activity: C10 whole cell lysates, end-point TR assay, FIG. 2A. It counts as biochemical, mouse. The procedure: Discontinuous insulin end-point assay. Cell lysates were prepared in TE buffer as described above and the sonicated lysates were centrifuged for 10 min at 14,000 rpm at 4° C. Supernatants were transferred to fresh 1.5 mL microcentrifuge tubes and protein concentrations were determined by a Bradford assay. A total reaction volume of […] was assembled by addition of 20 μL master mix to 20 μL of 25 μM E. coli Trx solution. The master mix contained 50 mM Tris/Cl pH 7.5, 1 mM EDTA, 900 μM NADPH (257 μM final), and 4.5 mg/mL insulin (1.3 mg/mL final). After addition of all of the components to a cuvette, the reactions were incubated at room temperature for 60 min and terminated by the addition of 930 μL of 6 M guanidine•HCL containing 1 mM 5,5′-dithio-bis(2-nitrobenzoic acid) (DTNB) solution prepared in ethanol; activity was detected by reading absorbance at 412 nm in a spectrophotometer. TR activity was determined by calculating the difference between identical samples +/− Trx. Here the activity is expressed as arbitrary units as determined by the raw A412 reading. Alternatively, the number of units can be calculated by using Beer's Law and an extinction coefficient of 13,600 M^−1 cm^−1 for the TNB anion. One unit of TR activity is the amount of enzyme catalyzing the reduction of 1 μM of DTNB per min (formation of 2 μmol TNB anion).

Another series deals with TR1. The series is described as follows: Immunoblot of TR1 expression after siRNA knockdown in C10 cells. It is filed as cell-based, mouse. The conditions noted are these: Western blot, FIG. 3E. The text has this:
TR over-expression and gene silencing. Full length TR1 was amplified from pCMV6-XL4 vector by PCR using specific forward (5′-[…]-3′) and reverse (5′-[…]-3′) primers and subsequently cloned into pcDNA 3.1 mammalian expression vector. Insertion of WT-TR1 full-length cDNA, including the 3′ SECIS element, into pcDNA 3.1 was confirmed by sequencing using the appropriate forward and reverse primer sets (T7 Forward: BGH Reverse). WT-TR1 or empty pcDNA 3.1 vector were transfected into C10 cells according to manufacturer's protocol. Specific siRNA to TR1 (si-TR1, 5′-[…]-3′) and a control (“scramble”) RNA (5′-[…]-3′) were introduced into C10 cells following the manufacturers guidelines (Dharmacon).
Immunoblotting. Equal protein amounts from cell lysates were separated on 10% gels by SDS-PAGE. Proteins were transferred to PVDF membrane for immunoblotting, and membranes then were blocked in 5% milk (Tris buffered saline with 0.1% Tween, TBST) for 1 hr at room temperature. Anti-TR1 (1:1000) anti-Trxl (1:2000) and anti-actin (1:5000) antibodies were diluted in 5% milk/TBST and incubated with membranes for 1 hr at room temperature. […] Membranes were washed 5× with TBST and HRP secondary antibodies were detected using Enhanced Chemiluminescent™ solution and collected on X-ray film.

Consider `N[C@@H](C[Se][Se]C[C@H](N)C(=O)O)C(=O)O` [L-selenocystine], for which the “Efficiency of reduction by TR” value in series [1] is on record as “equal efficiencies”.

`N[C@@H](C[Se][Se]C[C@H](N)C(=O)O)C(=O)O` (racemic) [racemic selenocystine, selenocystine]: the “Efficiency of reduction by TR” value in series [1] is “equal efficiencies”.

Take `CC(=O)OC[C@H]1O[C@@H]([S-])[C@H](OC(C)=O)[C@@H](OC(C)=O)[C@@H]1OC(C)=O.CCP(CC)CC.[Au+]` [auranofin]: in series [1] (lysates from treated C10 cells prepared in TE buffer or NP-40 lysis buffer, FIG. 4), the “Sensitivity of TR activity to inhibitor, TE buffer versus NP-40 buffer” value is given as “equivalent”.

As to `N[C@@H](C[Se][Se]C[C@H](N)C(=O)O)C(=O)O` [selenocystine], the “Reduction of substrate by glutathione reductase” value on glutathione reductase is “does not reduce”.

On to `C=CC=O` [acrolein], for which the “Inhibition of TR activity in cells over expressing TR1 and TR2” value is given as “inhibited to an equal extent” in series [2] (C10 cells transfected with TR1 and TR2, TE buffer lysates, end-point assay, FIG. 2C); “inhibited to an equal extent” in series [1] (C10 cells transfected with TR1 and TR2, TE buffer lysates, SC-TR assay, FIG. 2D). Moreover, the “Inhibition of TR activity” value in series [2] is on record as “inhibition of total TR activity”; in series [2] (listed as Acrolein), “completely inhibits”. Also, the “Inhibition of TR activity (NADPH turnover, A340)” value in series [1] (SC-TR assay) was “complete inhibition”; in series [1] (SC-TR assay, listed as Acrolein) it was “completely inhibits”.

Turning to “siRNA: Specific siRNA to TR1 (si-TR1, 5′-CCAUAGAGGGCGAAUUUAAUU-3′) (listed as RNA, chemistry not given here)”, the “TR1 protein expression after knockdown” value in the series on TR1 is “reduced the expression of TR1 for up to 48 hrs”. The “TR activity after knockdown of TR1” value in series [1] (C10 cells transfected with siRNA, SC-TR assay, FIG. 3A) is “reduced TR activity below control levels”.
